Source: PubChem BioAssay (NCI)
Where “and” joins values, the source holds several entries; their conditions need not be identical. Equal entries are not always repeated.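 Each compound was tested at five concentrations against cells in 96-well plates for 48 hours. Here, GI50 denotes the concentration required for 50% inhibition of growth. The concentration for full growth arrest is given as TGI.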

Key:
Experiment in all cases: growth of human tumour cells (NCI), 48 h
[1] = test system: NCI-H522 lung
[2] = test system: HCC-2998 colon
[3] = test system: SF-295 CNS
[4] = test system: UACC-62 melanoma
[5] = test system: SF-539 CNS
[6] = test system: NCI/ADR-RES ovarian
[7] = test system: A498 renal
[8] = test system: PC-3 prostate
[9] = test system: TK-10 renal
[10] = test system: MOLT-4 leukemia

Row | SMILES | GI50 [1] [µM] | TGI [1] [µM] | GI50 [2] [µM] | TGI [2] [µM] | GI50 [3] [µM] | TGI [3] [µM] | GI50 [4] [nM] | TGI [4] [µM] | GI50 [5] | TGI [5] | GI50 [6] [µM] | TGI [6] | GI50 [7] [nM] | TGI [7] | GI50 [8] | TGI [8] [µM] | GI50 [9] [µM] | TGI [9] [µM] | GI50 [10] [µM] | TGI [10] [µM]
1 | Cc1ccc(/C(=C/C=C(C#N)C#N)Sc2ccccn2)cc1 | 6.49 | 19.6 | 3.85 | 8.84 | 8.72 | 22.8 | 2510 | 7.23 | 2080 nM | 6.44 µM | 4.63 | 13.2 µM | 11600 | 24 µM | 4650 nM | > 20.5 | 3.02 | 12.1 | 2.01 | 6.32
2 | CC1(C)Cc2c(Br)c(Br)c(Br)c(OCC(O)CN3CCOCC3)c2O1 (configuration not stated) | 12.4 | 26.7 | 14.1 | 28.8 | 5.17 | 20.3 | 13800 | 27.5 | 12500 nM | 26 µM | 16.1 | 34.7 µM | 12600 | 26.4 µM | 7930 nM | 20.7 | 14.5 | 30 | 3.15 | 14.1
3 | COc1cc(-c2n/c(=C\c3c(O)[nH]c4ccccc34)cc3c2=Nc2ccccc2-3)cc(OC)c1OC | 0.247 | 0.664 | 2.32 | 6.48 | 0.666 | > 38.4 | 707 | > 100 | 783 nM | 7.83 µM | 1.62 | > 31.5 µM | 854 | 6.25 µM | 2190 nM | > 100 | 2.18 | 25 | 0.528 | 7.34
4 | CCOC(=O)/C(=C\c1ccc(F)cc1)C(C)=O |  | 29.5 |  | 26.6 |  | 79.3 |  | 38.1 |  | > 100 µM |  | > 100 µM |  | 34.9 µM |  | 38.2 |  | 52.3 |  | 89
5 | COc1ccc(-c2nc3sc4c(c3c(=O)[nH]2)CCCC4)c2ccccc12 |  | 0.0179 |  | 79.1 | 0.314 | 1.2 |  | 16.3 | 211 nM and 21.3 nM | 0.544 µM and 0.0746 µM |  | 4.95 µM and 2.75 µM |  | 0.765 µM and 0.0871 µM | 343 nM and 37.1 nM | > 100 | 3.53 |  |  | > 100
6 | O=[N+]([O-])/C=C/c1ccc([N+](=O)[O-])cc1 | 3.83 | 15 | 1.75 | 3.23 | 6.87 | 24 | 2090 | 6.15 | 2460 nM | 4.89 µM | 8.71 | 73.8 µM | 2980 | 10.1 µM | 5460 nM | 24.8 | 2.7 | 6.19 | 5.81 | 62.5
7 | CCCCCCN1CCN(Cc2ccc(N(CC)CC)cc2)C(=O)C1=O | 2.03 | 5.14 | 6.45 | 28.2 | 3.02 | > 100 | 3540 | > 100 | 2570 nM | 8.23 µM | 2.72 |  | 973 | 5.77 µM | 2970 nM | 54 | 10.3 | 77.5 | 3.42 | 32.8
